Molecules are shown by their SMILES.

Broadly, the EC50 is the concentration needed to bring the measured effect to its halfway point.

The target in one assay is T1, human TLR8 (Homo sapiens, UniProt Q9NR97).
T1 construct: host or cells: HEK-Blue 293 cells expressing human TLR8
T1 sequence (Q9NR97 27-1041): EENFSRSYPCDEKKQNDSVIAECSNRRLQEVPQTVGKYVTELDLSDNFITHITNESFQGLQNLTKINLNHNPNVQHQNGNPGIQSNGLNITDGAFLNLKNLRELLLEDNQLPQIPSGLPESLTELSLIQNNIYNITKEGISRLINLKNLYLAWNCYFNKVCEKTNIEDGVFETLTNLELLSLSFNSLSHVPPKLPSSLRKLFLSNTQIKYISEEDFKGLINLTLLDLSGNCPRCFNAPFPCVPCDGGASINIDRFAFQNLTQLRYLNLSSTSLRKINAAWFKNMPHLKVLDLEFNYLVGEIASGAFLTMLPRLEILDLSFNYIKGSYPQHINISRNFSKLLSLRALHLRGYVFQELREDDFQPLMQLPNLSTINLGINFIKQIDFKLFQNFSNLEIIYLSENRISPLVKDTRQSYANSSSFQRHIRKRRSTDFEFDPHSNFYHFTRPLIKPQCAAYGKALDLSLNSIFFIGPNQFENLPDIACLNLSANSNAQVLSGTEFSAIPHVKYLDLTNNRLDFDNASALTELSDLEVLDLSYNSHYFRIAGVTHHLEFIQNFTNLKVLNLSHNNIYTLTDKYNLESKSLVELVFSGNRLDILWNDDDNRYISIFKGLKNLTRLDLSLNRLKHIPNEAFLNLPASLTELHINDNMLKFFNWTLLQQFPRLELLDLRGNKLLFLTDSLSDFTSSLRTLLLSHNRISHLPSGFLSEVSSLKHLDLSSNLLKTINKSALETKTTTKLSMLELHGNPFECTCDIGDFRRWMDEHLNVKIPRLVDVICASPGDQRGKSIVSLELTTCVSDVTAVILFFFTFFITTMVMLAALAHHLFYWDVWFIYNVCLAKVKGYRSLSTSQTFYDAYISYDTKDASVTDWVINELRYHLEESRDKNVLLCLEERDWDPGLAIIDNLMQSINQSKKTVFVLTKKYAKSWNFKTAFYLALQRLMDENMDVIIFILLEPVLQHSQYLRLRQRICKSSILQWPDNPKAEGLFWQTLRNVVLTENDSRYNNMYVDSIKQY
Description: Cell-based TLR 7/8 assay, HEK-Blue TLR8 cells (SEAP reporter). Particulars: based on Compound concentration only; Compounds formulated as SNEs; read-out: huTLR8 EC50 (converted). On the procedure:
(§1) HEK-Blue™ TLR7 and TLR8 cells (InvivoGen) were designed to assess the stimulation of TLR7 and TLR8 by monitoring the activation of NF-κB and AP-1. Compound B-1-SNE samples were diluted 1:2 across an 8-point titration in diluent buffer histidine/PS-20 in a sterile V-bottom plate. 20 μL of samples were transferred to corresponding wells of two flat bottom assay plates. Media was aspirated from HEK-Blue™ human TLR 7 and TLR 8 cells (T-75 flasks) and gently rinsed with pre-warmed (37° C.) DPBS for a total volume of 5 mL/flask. The DPBS was gently removed from the cells and cells were gently manually dislodged and resuspended in 2 mL of DPBS. Cell assay suspensions were then prepared at approximately 2.2×10^5 cells per mL of HEK-Blue™ detection medium (InvivoGen). 180 μL of cell suspension in detection medium was added to each well of the two flat bottom assay plates containing the diluted Compound B-1-SNE samples for a final dilution of sample equaling 1:10 (180 μL of cell suspension in detection medium and 20 μL of sample). The cells were then incubated at 37° C. in 5% CO2 for 20 hrs. The reporter gene, NF-Kb, induces the production of secreted embryonic alkaline phosphatase (SEAP) when stimulated and can be monitored using the vendor supplied SEAP detection kit. SEAP colorimetric changes were read at an absorbance of 640 nm using a SpectroMax Stakmax plate reader. […] EC50 values were calculated based on total Compound B-1-SNE concentration using GraphPad Prism Software and analyzed using agonist vs. response variable slope (four parameters) least squares fit.
(§2) Further to the description in Example 10, a cell-based activation system was used to assess activity of the Compound-formulated nanoemulsion systems, prepared as described in examples, supra. HEK-Blue™ TLR7 and TLR8 cells (InvivoGen) were designed to assess the stimulation of TLR7 and TLR8 by monitoring the activation of NF-κB and AP-1. Compound-SNE samples were diluted 1:2 across an 8-point titration in diluent buffer histidine/PS-20 in a sterile V-bottom plate. 20 μL of samples were transferred to corresponding wells of two flat bottom assay plates. Media was aspirated from HEK-Blue™ human TLR 7 and TLR 8 cells (T-75 flasks) and gently rinsed with pre-warmed (37° C.) DPBS for a total volume of 5 mL/flask. The DPBS was gently removed from the cells and cells were gently manually dislodged and resuspended in 2 mL of DPBS. Cell assay suspensions were then prepared at approximately 2.2×10^5 cells per mL of HEK-Blue™ detection medium (InvivoGen). 180 μL of cell suspension in detection medium was added to each well of the two flat bottom assay plates containing the diluted Compound-SNE samples for a final dilution of sample equaling 1:10 (180 μL of cell suspension in detection medium and 20 μL of sample). The cells were then incubated at 37° C. in 5% CO2 for 20 hrs. The reporter gene, NF-Kb, induces the production of secreted embryonic alkaline phosphatase (SLAP) when stimulated and can be monitored using the vendor supplied SLAP detection kit. SLAP colorimetric changes were read at an absorbance of 640 nm using a SpectroMax Stakmax plate reader. EC50s were calculated based on Compound concentration only, not total Compound-SNE concentration (Table 6) using GraphPad Prism Software and analyzed using agonist vs. response variable slope (four parameters) least squares fit.

The next assay has as its target T2, human TLR7 (Homo sapiens, UniProt Q9NYK1).
T2 construct: host or cells: HEK-Blue 293 cells expressing human TLR7
T2 sequence (Q9NYK1 27-1049): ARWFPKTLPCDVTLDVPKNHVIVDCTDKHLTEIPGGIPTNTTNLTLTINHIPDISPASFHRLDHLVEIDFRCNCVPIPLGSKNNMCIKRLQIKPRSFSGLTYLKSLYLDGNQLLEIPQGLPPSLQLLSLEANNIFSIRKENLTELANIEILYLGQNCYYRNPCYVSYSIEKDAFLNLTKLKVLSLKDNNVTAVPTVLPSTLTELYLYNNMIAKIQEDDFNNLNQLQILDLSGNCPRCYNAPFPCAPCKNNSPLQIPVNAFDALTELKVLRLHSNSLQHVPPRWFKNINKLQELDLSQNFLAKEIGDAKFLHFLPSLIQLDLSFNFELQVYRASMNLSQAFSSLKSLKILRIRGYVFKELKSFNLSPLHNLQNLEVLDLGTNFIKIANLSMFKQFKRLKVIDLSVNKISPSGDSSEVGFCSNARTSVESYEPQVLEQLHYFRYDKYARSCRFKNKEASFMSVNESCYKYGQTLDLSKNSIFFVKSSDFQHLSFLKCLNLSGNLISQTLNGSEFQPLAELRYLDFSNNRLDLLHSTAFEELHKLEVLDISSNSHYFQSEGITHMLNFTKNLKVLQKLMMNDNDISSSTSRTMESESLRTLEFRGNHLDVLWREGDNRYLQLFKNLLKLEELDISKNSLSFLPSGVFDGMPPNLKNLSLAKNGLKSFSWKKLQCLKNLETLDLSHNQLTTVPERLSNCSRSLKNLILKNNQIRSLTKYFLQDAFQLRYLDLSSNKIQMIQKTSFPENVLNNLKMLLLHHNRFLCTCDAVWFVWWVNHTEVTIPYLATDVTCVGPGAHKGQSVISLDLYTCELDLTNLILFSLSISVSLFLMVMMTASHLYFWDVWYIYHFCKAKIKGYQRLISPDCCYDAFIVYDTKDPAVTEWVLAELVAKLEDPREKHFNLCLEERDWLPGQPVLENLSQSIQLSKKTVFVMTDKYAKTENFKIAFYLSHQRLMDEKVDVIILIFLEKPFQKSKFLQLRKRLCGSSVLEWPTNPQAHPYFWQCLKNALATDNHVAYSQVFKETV
Description: Cell-based TLR 7/8 assay, HEK-Blue TLR7 cells (SEAP reporter). Particulars: based on Compound concentration only; Compounds formulated as SNEs; read-out: huTLR7 EC50 (converted). On the procedure:
as §1, §2

`CCCCCCCCCCCCCCCCNC(=O)[C@H]1C[C@@H](CC(=O)N2CCN(c3ccc(Cn4cc5nc(N)nc(NCCCC)c5n4)c(OC)c3)CC2)C1` [Compound B-10, (1s,3s)-3-(2-(4-(4-((5-amino-7-(butylamino)-2H-pyrazolo[4,3-d]pyrimidin-2-yl)methyl)-3-methoxyphenyl)piperazin-1-yl)-2-oxoethyl)-N-hexadecylcyclobutane-1-carboxamide]: the EC50 on human TLR8 was 73600 nM; on human TLR7 it was 117000 nM.

In the case of `CCCCCCCCCCCCCCCCCC(=O)NCCC(=O)N1CCN(c2ccc(Cn3cc4nc(N)nc(NCCCC)c4n3)c(OC)c2)CC1` [Compound B-11, N-(3-(4-(4-((5-amino-7-(butylamino)-2H-pyrazolo[4,3-d]pyrimidin-2-yl)methyl)-3-methoxyphenyl)piperazin-1-yl)-3-oxopropyl)stearamide], the EC50 at human TLR8 was 401 nM; on human TLR7, 3070 nM.

In the case of `CCCCCCCCCCCCCCCCCC(=O)NCCCCCCC(=O)N1CCN(c2ccc(Cn3cc4nc(N)nc(NCCCC)c4n3)c(OC)c2)CC1` [Compound B-12, N-(7-(4-(4-((5-amino-7-(butylamino)-2H-pyrazolo[4,3-d]pyrimidin-2-yl)methyl)-3-methoxyphenyl)piperazin-1-yl)-7-oxoheptyl)stearamide], the figures for the EC50 on human TLR8 and at human TLR7 were 25500 nM and 23400 nM, respectively.

As for `CCCCCCCCCCCCCCCCCC(=O)NC1CC(CC(=O)N2CCN(c3ccc(Cn4cc5nc(N)nc(NCCCC)c5n4)c(OC)c3)CC2)C1` (stereo not shown) [Compound B-13, N-(3-(2-(4-(4-((5-amino-7-(butylamino)-2H-pyrazolo[4,3-d]pyrimidin-2-yl)methyl)-3-methoxyphenyl)piperazin-1-yl)-2-oxoethyl)cyclobutyl)stearamide], the values for the EC50 on human TLR8 and at human TLR7 were 3020 nM and 85900 nM, respectively.

`CCCCCCCCCCCCCCCCCC(=O)NCCCC(C)(C)C(=O)N1CCN(c2ccc(Cn3cc4nc(N)nc(NCCCC)c4n3)c(OC)c2)CC1` [Compound B-14, N-(5-(4-(4-((5-amino-7-(butylamino)-2H-pyrazolo[4,3-d]pyrimidin-2-yl)methyl)-3-methoxyphenyl)piperazin-1-yl)-4,4-dimethyl-5-oxopentyl)stearamide]: the values for the EC50 at human TLR8 and at human TLR7 were 11900 nM and 135000 nM, respectively.

Consider `CCCCCCCCCCCCCCCCCC(=O)NCCCCC(=O)N1CCN(c2ccc(Cn3nc4c(NCCCC)nc(N)nc4c3C)c(OC)c2)CC1` [Compound B-18, N-(5-(4-(4-((5-amino-7-(butylamino)-3-methyl-2H-pyrazolo[4,3-d]pyrimidin-2-yl)methyl)-3-methoxyphenyl)piperazin-1-yl)-5-oxopentyl)stearamide], for which the EC50 on human TLR8 was 215 nM; on human TLR7, 316 nM.

As for `CCCCC/C=C\C/C=C\CCCCCCCC(=O)NCCCCN(C)Cc1cc(OC)c(Cn2cc3nc(N)nc(NCCCC)c3n2)c(OC)c1` [Compound C-1, (9Z,12Z)—N-(4-((4-((5-amino-7-(butylamino)-2H-pyrazolo[4,3-d]pyrimidin-2-yl)methyl)-3,5-dimethoxybenzyl)(methyl)amino)butyl)octadeca-9,12-dienamide], the EC50 at human TLR8 is 95.5 nM; on human TLR7, 259 nM.

As for `CCCCCCCCCCCCCC(=O)NCCCCN(C)Cc1cc(OC)c(Cn2cc3nc(N)nc(NCCCC)c3n2)c(OC)c1` [Compound C-2, N-(4-((4-((5-amino-7-(butylamino)-2H-pyrazolo[4,3-d]pyrimidin-2-yl)methyl)-3,5-dimethoxybenzyl)(methyl)amino)butyl)tetradecanamide], the EC50 at human TLR8 is 176 nM; on human TLR7, 338 nM.

As for `CCCCCCCC/C=C\CCCCCCCC(=O)NCCCCN(C)Cc1cc(OC)c(Cn2cc3nc(N)nc(NCCCC)c3n2)c(OC)c1` [Compound C-3, N-(4-((4-((5-amino-7-(butylamino)-2H-pyrazolo[4,3-d]pyrimidin-2-yl)methyl)-3,5-dimethoxybenzyl)(methyl)amino)butyl)oleamide], the EC50 on human TLR8 is 163 nM; on human TLR7, 503 nM.

For `CCCCCCCCCCCCCCCCCC(=O)NCCCCN(C)Cc1cc(OC)c(Cn2cc3nc(N)nc(NCCCC)c3n2)c(OC)c1` [Compound C-4, N-(4-((4-((5-amino-7-(butylamino)-2H-pyrazolo[4,3-d]pyrimidin-2-yl)methyl)-3,5-dimethoxybenzyl)(methyl)amino)butyl)stearamide], the EC50 was 1170 nM on human TLR8 and 4950 nM on human TLR7.

As to `CCCCCCCCCCCCCCCCCC(=O)NCCCC(=O)N(C)Cc1cc(OC)c(Cn2cc3nc(N)nc(NCCCC)c3n2)c(OC)c1` [Compound C-5, N-(4-((4-((5-amino-7-(butylamino)-2H-pyrazolo[4,3-d]pyrimidin-2-yl)methyl)-3,5-dimethoxybenzyl)(methyl)amino)-4-oxobutyl)stearamide], the EC50 on human TLR8 is 93.2 nM; on human TLR7 it was 639 nM.

The values are drawn from patent publication US20240390471A1, “COMPOUNDS AND ADJUVANT FORMULATIONS USEFUL IN PNEUMOCOCCAL VACCINES” (Merck Sharp & Dohme LLC, priority 2023, published 2024).
